US3994882A, “Nitrofuran derivatives, process for the preparation thereof and compositions containing same as active ingredient” (Kabushiki Kaisha Ueno Seiyaku Oyo Kenkyujo, priority 1974, dated 1976)
≈ marks a conversion by molar mass, not a printed value. Read-outs that look alike come from different tables or passages of the source.

Experiments:
[1] = test system: Diplococcus pneumoniae DP-1; test: Minimum growth inhibiting concentration (Table 1); type: cell-based; settings: Streptococcus pneumoniae, DP1, TSBI, pH 7.2, 37° C., 48 hours
Experimental: (§1) For information, the minimum growth inhibiting concentration is a value
(§2) concerning microorganisms cultivated in TSBI the pH of which was adjusted
(§3) to 7.2, each bacteria being incubated at 37° C. for 48 hours.

[2] = test system: Klebsiella pneumoniae ST-101; test: Minimum growth inhibiting concentration (Table 1); type: cell-based; settings: ST101, TSBI, pH 7.2, 37° C., 48 hours
Experimental: as §1, §2, §3

Proteus vulgaris HX-19 = test: Minimum growth inhibiting concentration (Table 1); type: cell-based; settings: HX19, TSBI, pH 7.2, 37° C., 48 hours
Experimental: as §1, §2, §3

[3] = test system: Pseudomonas aeruguinosa 347; test: Minimum growth inhibiting concentration (Table 1); type: cell-based; settings: TSBI, pH 7.2, 37° C., 48 hours
Experimental: as §1, §2, §3

[4] = test system: Salmonella enteritidis 1891; test: Minimum growth inhibiting concentration (Table 1); type: cell-based; settings: Salmonella enterica, TSBI, pH 7.2, 37° C., 48 hours
Experimental: as §1, §2, §3

Bacillus Subtilis PCI219 = test: Minimum growth inhibiting concentration (Table 1); type: cell-based; settings: TSBI, pH 7.2, 37° C., 48 hours
Experimental: as §1, §2, §3

[5] = test system: Streptococcus hemolyticus A 089; test: Minimum growth inhibiting concentration (Table 1); type: cell-based; settings: Streptococcus pyogenes, A089, TSBI, pH 7.2, 37° C., 48 hours
Experimental: as §1, §2, §3

[6] = test system: Salmonella pullorum chuyu 114; test: Minimum growth inhibiting concentration (Table 1); type: cell-based; settings: Salmonella enterica, TSBI, pH 7.2, 37° C., 48 hours
Experimental: as §1, §2, §3

[7] = test system: Staphylococcus aureus 209P; test: Minimum growth inhibiting concentration (Table 1); type: cell-based; settings: TSBI, pH 7.2, 37° C., 48 hours
Experimental: as §1, §2, §3

Escherichia coli O-55 = test: Minimum growth inhibiting concentration (Table 1); type: cell-based; settings: O55, TSBI, pH 7.2, 37° C., 48 hours
Experimental: as §1, §2, §3

[8] = test system: Salmonella pullorum NIAH 5159; test: Effectiveness in preventing infection by Salmonella pullorum in chicks (Table 6); type: in vivo; settings: 7 days, chicks with germs isolated / chicks tested
Experimental: A culture liquid obtained by cultivating Salmonella pullorum NIAH 5159 in a YCCB culture medium for 20 hours at 37° C. was injected into the cloaca of 2-day-old chicks at the rate of 0.2 ml per chick. Nitrofuran derivatives in total amounts indicated below were then mixed with the feed, and the so mixed feed was fed to the chicks for 7 days. The chicks were then sacrificed, and the liver and/or spleen were homogenized, following which the product was cultivated for 48 hours at 37° C. in a YCCB culture medium in customary manner. The expression, "rate of germ isolation" used in the table has the following meaning. For instance, the value 4/10 means the germs were isolated from four out of the ten chicks submitted to the test.

[9] = Acute toxicity in mice (Table 4); settings: mouse, in vivo, po
Experimental: (§4) Next, in Table 4 are shown the curative actions (ED50 mg/Kg body wt.) and acute toxicities (LD50 mg/kg body wt.) of the typical nitrofuran derivatives of the present invention when used with infected mice.

Escherichia coli K-74 = test: Curative action in infected mice (Table 4); type: in vivo; settings: K74, 168 h, mice infected abdominally, oral in 5% gum arabic, observation one week
Experimental: as §4
(§5) Note.- The numerical values in the table denote the amounts per unit body
(§6) weight of the nitrofuran derivatives required for cure when the experimen
(§7) was carried out using mice of body weight of about 20 grams and injecting
(§8) thereinto abdominally the microorganism-containing solutions in amounts o
(§9) 0.2 ml (the microorganism-containing solutions used being those in the
(§10) cases of test microorganisms 1, 3 and 4 in which the microorganism cultur
(§11) liquids were diluted 10^5, 5 and 10^2 times, respectively, and in
(§12) the case of test microorganism 2 that which was concentrated 2 times),
(§13) after which the nitrofuran derivatives suspended in 5% gum arabic were
(§14) forcedly administered orally followed by observation for one week.

[10] = test system: Salmonella typhimium K-52; test: Curative action in infected mice (Table 4); type: in vivo; settings: K52, 168 h, mice infected abdominally, oral in 5% gum arabic, observation one week
Experimental: as §4, §5, §6, §7, §8, §9, §10, §11, §12, §13, §14

[11] = test system: Streptococcus hemolyticus A 089; test: Curative action in infected mice (Table 4); type: in vivo; settings: Streptococcus pyogenes, A089, 168 h, mice infected abdominally, oral in 5% gum arabic, observation one week
Experimental: as §4, §5, §6, §7, §8, §9, §10, §11, §12, §13, §14

[12] = test system: Staphylococcus aureus 72r; test: Curative action in infected mice (Table 4); type: in vivo; settings: 168 h, mice infected abdominally, oral in 5% gum arabic, observation one week
Experimental: as §4, §5, §6, §7, §8, §9, §10, §11, §12, §13, §14

Aeromonas salmonicida = test: Minimum growth inhibiting concentration, microorganisms that infect fish (Table 3); type: cell-based; settings: 0.5% NaCl added ordinary agar, 25° C., 24 hours
Experimental: (§15) The minimum growth inhibiting concentrations were measured under indentical contitions as in the case of Table 1. The culture temperature was 25° C., the culture being carried out for 48 hours in the asterisked case and 24 hours in the other cases.

Aeromonas liquefaciens = test: as above; type: cell-based; settings: Aeromonas hydrophila, 0.5% NaCl added ordinary agar, 25° C., 24 hours
Experimental: as §15

Aeromonas punctata = test: as above; type: cell-based; settings: Aeromonas caviae, 0.5% NaCl added ordinary agar, 25° C., 24 hours
Experimental: as §15

Vibrio panulirus Vp-M-1 = test: as above; type: cell-based; settings: VPM1, 3% NaCl added ordinary agar, 25° C., 24 hours
Experimental: as §15

[13] = test system: Vibrio piscium var. Japonicus; test: as above; type: cell-based; settings: Vibrio anguillarum, 0.5% NaCl added ordinary agar, 25° C., 24 hours
Experimental: as §15

Pasteurella piricida SU = test: as above; type: cell-based; settings: 2% NaCl added brain-heat infusion agar, 25° C., 24 hours
Experimental: as §15

[14] = test system: Chondrococcus columnaris Ek-23; test: as above; type: cell-based; settings: Flavobacterium columnare, EK23, 0.5% NaCl added TSB agar, 25° C., 48 hours (asterisked)
Experimental: as §15

Vibrio anguillarum K-3 = test: as above; type: cell-based; settings: K3, 3% NaCl added ordinary agar, 25° C., 24 hours
Experimental: as §15

Vibrio sp. Sp-1 = test: as above; type: cell-based; settings: SP.SP1, 3% NaCl added ordinary agar, 25° C., 24 hours
Experimental: as §15

[15] = test system: Erysiperothrix rhusiopatiae Agata; test: Cure of mice infected with Erysiperothrix rhusiopatiae (Table 5); type: in vivo; settings: Mus musculus, 168 h, observed 7 days, read-out: ED50 when used with Erysiperothrix rhusiopatiae
Experimental: Mice of body weight about 20 grams were used, and 0.2 ml of a culture liquid obtained by cultivating Erysiperothrix rhusiopatiae Agata for 24 hours at 37° C. in a 10% calf serum TSB added culture medium (amount of inoculated germs 4.0 × 10^7) was injected abdominally.

Row | Compound | MIC [1] | MIC [2] | MIC (Proteus vulgaris HX-19) | MIC [3] | MIC [4] | MIC (Bacillus Subtilis PCI219) | MIC [5] | MIC [6] | MIC [7] | MIC (Escherichia coli O-55) | Rate of germ isolation ([8]; 50 ppm in feed) | Rate of germ isolation ([8]; 100 ppm in feed) | Rate of germ isolation ([8]; 200 ppm in feed) | Rate of germ isolation ([8]; 400 ppm in feed) | Rate of germ isolation ([8]; 800 ppm in feed) | LD50 [9] | ED50 (Escherichia coli K-74) | ED50 [10] | ED50 [11] | ED50 [12] | also measured
1 | O=C(NCCO)c1ccc(C=Cc2ccc([N+](=O)[O-])o2)cc1 [Example 1, 2-Para-[2'-(5"-nitro-2"-furyl)-vinyl]-benzoylaminoethanol] | 0.78 µg/mL (≈ 2.58 µM) | 3.13 µg/mL (≈ 10.4 µM) | 3.13 µg/mL (≈ 10.4 µM) | 12.5 µg/mL (≈ 41.4 µM) | 1.56 µg/mL (≈ 5.16 µM) | < 0.19 µg/mL | < 0.19 µg/mL | 3.13 µg/mL (≈ 10.4 µM) | 0.78 µg/mL (≈ 2.58 µM) | 3.13 µg/mL (≈ 10.4 µM) | 4/10 | 4/10 | 3/10 | 2/10 | 0/10 | 1500 mg/kg | 14 mg/kg | 75 mg/kg | 8 mg/kg | 14 mg/kg | MIC (Aeromonas salmonicida): 0.018 µg/mL (≈ 0.0595 µM); MIC (Aeromonas liquefaciens): 0.062 µg/mL (≈ 0.205 µM); MIC (Aeromonas punctata): 0.125 µg/mL (≈ 0.414 µM); MIC (Vibrio panulirus Vp-M-1): 0.009 µg/mL (≈ 0.0298 µM); MIC [13]: < 0.015 µg/mL; MIC (Pasteurella piricida SU): 0.037 µg/mL (≈ 0.122 µM); MIC [14]: 0.0037 µg/mL (≈ 0.0122 µM); MIC (Vibrio anguillarum K-3): 0.018 µg/mL (≈ 0.0595 µM); MIC (Vibrio sp. Sp-1): 0.018 µg/mL (≈ 0.0595 µM); ED50 ([15]; oral administration): 21.8 mg/kg; ED50 ([15]; sc, subcutaneous injection): 50 mg/kg
2 | O=C(NCC(O)CO)c1ccc(C=Cc2ccc([N+](=O)[O-])o2)cc1 (centres unmarked) [Example 9, 3-Para-[2'-(5"-nitro-2"-furyl)-vinyl]-benzoylamino-1,2-propanediol] | < 0.19 µg/mL | 6.25 µg/mL (≈ 18.8 µM) | 6.25 µg/mL (≈ 18.8 µM) | > 25 µg/mL | 1.56 µg/mL (≈ 4.69 µM) | < 0.19 µg/mL | < 0.19 µg/mL | 6.25 µg/mL (≈ 18.8 µM) | 0.78 µg/mL (≈ 2.35 µM) | 3.13 µg/mL (≈ 9.42 µM) | 4/10 | 4/10 | 3/10 | 2/10 | 1/10 | > 2000 mg/kg | 10 mg/kg | 100 mg/kg | 15 mg/kg | 21 mg/kg | MIC (Aeromonas salmonicida): 0.018 µg/mL (≈ 0.0542 µM); MIC (Aeromonas liquefaciens): 0.037 µg/mL (≈ 0.111 µM); MIC (Aeromonas punctata): 0.25 µg/mL (≈ 0.752 µM); MIC (Vibrio panulirus Vp-M-1): 0.009 µg/mL (≈ 0.0271 µM); MIC [13]: < 0.015 µg/mL; MIC (Pasteurella piricida SU): 0.037 µg/mL (≈ 0.111 µM); MIC [14]: 0.0037 µg/mL (≈ 0.0111 µM); MIC (Vibrio anguillarum K-3): 0.037 µg/mL (≈ 0.111 µM); MIC (Vibrio sp. Sp-1): 0.018 µg/mL (≈ 0.0542 µM); ED50 ([15]; oral administration): 25.5 mg/kg; ED50 ([15]; sc, subcutaneous injection): 42.1 mg/kg
